Read-outs that look alike come from different tables or passages of the source.
Tests used:
[1] = Metabolite profiling in liver microsomes; assay type: in vitro ADME; details: incubation 60 min at 37°C; mouse, rat, dog, monkey and human liver microsomes
Experimental: Metabolite profiling was conducted in mouse, rat, dog, monkey, and human liver microsomes in vitro as well as in rat plasma, feces, and urine samples in vivo (From other experiments). […] All samples were analyzed by the LC/MS/MS (AB Sciex, API 5500 Qtrap) system. The structures of major metabolites were elucidated based on EPI spectra and further verified using authentic standards. The main metabolite Imp3 was quantified in multiple reaction monitoring mode in rat, dog and human clinical samples.

[2] = system: EGFR phosphorylation (pY1068) in PC-9 cells; experiment: Phosphorylation of EGFR assay, time course; assay type: cell-based, human; details: 0.1 μmol/L, 1-10 h
Experimental: (§1) Cells (NCI-H1975/PC-9/[…]) were seeded into a 384-well plate (10,000 cells/well), grown for 24 h, and then treated with different test compounds (0.1 μmol/L) for 1, 2, 4, 6, 8 and 10 h. A431 cells were stimulated with 100 ng/ml EGF after incubation for 10 min. Cells were washed with ice-cold HBSS before extraction with 25 μl cell lysis buffer. Phosphorylation of EGFR was measured using a sandwich ELISA assay with phospho-specific EGFR (pY1068) antibodies [AlphaLISA SureFire p-EGF Receptor (Tyr1068) Assay Kit, PerkinElmer].

[3] = system: EGFR phosphorylation (pY1068) in A431 cells; experiment: Phosphorylation of EGFR assay, time course; assay type: cell-based, human; details: 0.1 μmol/L, 1-10 h, EGF stimulated
Experimental: as §1

[4] = system: A431 (wild-type EGFR) tumor xenografts; experiment: A431 xenograft model; assay type: in vivo, Nu/Nu nude mice; details: 5 mg/kg/day
Experimental: (§2) The female Nu/Nu nude mice were purchased from Beijing Vital River Laboratories. […] Nu/Nu nude mice were purchased from the Beijing Vital River Laboratories of China. The 6–8 weeks old female mice were inoculated subcutaneously at the right flank with approximately 3–5 × 10^6 tumor cells in 0.2 ml of medium. The treatments were started when the tumor size reached approximately 200 mm^3. […] All mice were orally administrated once daily for consecutive 14 days. Mouse body weight, tumor weight and tumor volume (TV) were measured twice per week. TV was then used for the calculation of tumor inhibitory rate and tumor regression rate.

[5] = Plasma pharmacokinetics in NCI-H1975 tumor-bearing mice; assay type: in vivo; details: for AUC(0-t): po, read-out: AUC0–t in plasma
Experimental: (§3) NCI-H1975 tumor-bearing mice with tumor burden of approximately 200 mm^3 were used in the pharmacokinetics and pharmacodynamics study. […] Blood samples were collected at 0 (pre-dose), 10, 30 min, 1, 2, 4, 8, and 24 h post-dose.
(§4) Ionization mode. Drug to internal standard peak area ratios for the standards were used to create a calibration curve using 1/×^2 weighted least-squares regression analysis. Concentrations of each analyte were quantified by comparing the ratios for each in-trial sample with those in the relevant calibration curve.

[6] = system: phosphorylation of EGFR and ERK; experiment: Immunohistochemistry of tumor tissue from NCI-H1975 xenograft model; assay type: in vivo, Nu/Nu nude mice; details: 6–24 h
Experimental: Paraffin-embedded tumor tissues from each group were sectioned, mounted on positively charged glass slides, baked, deparaffinized, and rehydrated. Antigen retrieval was performed by heating slides in EDTA (pH 8.0) for 10 min. Sections were incubated in p-EGF Receptor ([…]) Rabbit antibody and Phospho-p44/42 MAPK (Erk1/2) (Thr202/Tyr204) (20G11) Rabbit antibody overnight at 4°C and then incubated with Anti-Rabbit IgG (H + L) at 37°C for 45 min. The sections were then stained with diaminobenzidine (DAB) and visualized.

[7] = system: PC-9 (exon 19 del) xenograft; experiment: PC-9 xenograft model; assay type: in vivo, Nu/Nu nude mice; details: oral, 2.5 to 15 mg/kg
Experimental: as §2

[8] = Tissue distribution in NCI-H1975 tumor-bearing mice; assay type: in vivo
Experimental: as §3, §4

**Q.** Which results are given for `C=CC(=O)Nc1cc(Nc2nccc(-c3c4n(c5ccccc35)CCCC4)n2)c(OC)cc1N(C)CCN(C)C` [SH-1028]?
**A.** number of metabolites detected [1]: 27; inhibitory effect on EGFR phosphorylation [2]: stronger than that of osimertinib; inhibitory effect on EGFR phosphorylation [3]: weak inhibitory effect; tumor growth [4]: moderate tumor growth inhibition; AUC(0-t) ([5]; Nu/Nu nude, mouse, plasma, 2.5 mg/kg, 2.5 mg/kg oral daily, Day 14): 272 ng·h/mL; AUC(0-t) ([5]; Nu/Nu nude, mouse, plasma, 2.5 mg/kg, 2.5 mg/kg oral, Day 1): 118 ng·h/mL; AUC(0-t) ([5]; Nu/Nu nude, mouse, plasma, 5 mg/kg, 5 mg/kg oral daily, Day 14): 308 ng·h/mL; AUC(0-t) ([5]; Nu/Nu nude, mouse, plasma, 5 mg/kg, 5 mg/kg oral, Day 1): 300 ng·h/mL; AUC(0-t) ([5]; Nu/Nu nude, mouse, plasma, 15 mg/kg, 15 mg/kg oral daily, Day 14): 993 ng·h/mL; AUC(0-t) ([5]; Nu/Nu nude, mouse, plasma, 15 mg/kg, 15 mg/kg oral, Day 1): 931 ng·h/mL; Tmax ([5]; Nu/Nu nude, mouse, plasma, oral 2.5, 5 and 15 mg/kg): 1.5 to 2 h; accumulation between Days 1–14 ([5]; oral daily dosing for 14 days): no significant accumulation; phosphorylation levels of EGFR and ERK in tumor tissues [6]: continuously inhibit the phosphorylation of EGFR and ERK; tumor growth [7]: significant inhibition of tumor cell growth; distribution into tissues (tumor tissues, adjacent lung tissues and brain) ([8]; 15 mg/kg oral, within 2 h, Day 1): rapidly and extensively distributed into tissues; blood-brain barrier penetration ([8]; pharmacokinetic experiments): could penetrate the blood-brain barrier
